{
  "source": "patent US20250215400A1",
  "about": "“CRYOPRESERVATION MEDIUM COMPRISING HYALURONIC ACID, USE THEREOF AND METHOD OF CRYOPRESERVATION” (CONTIPRO A.S., priority 2022, published 2025)",
  "key": {"[1]": {"system": "hMSC cells", "assay": "total number of hMSC cells (CaSy cell counter) after cryopreservation, thawing and two weeks of cultivation", "assay_type": "cell-based, human", "details": "Example 1, cryopreservation medium in α-MEM", "description": "FIG. 1 represents the total number of hMSC cells measured using CaSy cell counter (OMNI Life Science GmbH) after two weeks of cultivation. The data are shown as averages and the standard deviation is shown as an error bar.\nMesenchymal stem cell cultures were cryopreserved. The method of cryopreservation consists of the addition of a cryopreservation medium to the sample and the subsequent […] cryopreservation through a slow freeze at a rate of 1° C./min, for preservation of the sample at low temperatures (−80 C to −196C). The cryopreserved stem cell culture is revived after preservation by thawing in a water bath at 37° C. for 2 minutes and the cryopreservation medium is subsequently washed away from the cellular suspension by centrifugation. The cells are then seeded in a cultivation bottle and cultivated for two weeks.\nFor cryopreservation, 4 different combinations of cryoprotective medium containing hyaluronic acid with MW 1,500,000 g/mol in two concentrations of 0.1 and 0.2% (w/v) with an addition of 5 or 3% DMSO (v/v) dissolved in a standard α-MEM medium were used. The composition containing 5, 3 or 10% (v/v) DMSO in the medium served as a cryopreservation control.\nThe mesenchymal stem cells hMSC cultures were cryopreserved. […]"}, "[2]": {"system": "stem cells", "details": "room temperature; Pal et al., 2012; Tunçer et al., 2018; cited from earlier work"}},
  "data": [
    {"smiles": "C[S+](C)[O-]", "note": "[DMSO, dimethyl sulfoxide]", "values": [
      {"measurement": "stem cell survival and proliferation efficiency", "setting": "[1]", "value": "lower MSCs survival and proliferation efficiency"},
      {"measurement": "concentration range at which an effect on viability, morphology, cell adhesion and differentiation was observed", "setting": "[2]", "value": "0.1-1 % (v/v)"}
    ]}
  ]
}
